“And” between values parts separate entries of the source, which are not always exact repeats. Equal entries are not always repeated.
How the values were obtained:
[1] = biological target: T1, PPM1D1–420 (Homo sapiens, UniProt O15297); assay: p38 MAPK enzymatic assay (LC/MS, dephosphorylation of T180); type: biochemical; details: for P38 Assay, signal relative to 0 nM GSK (=100): PPM1D1-420, individual runs, listed as GSK
T1 construct: PPM1D1–420 was PCR-amplified from the synthesized gene with BsaI sites; His(6)-SUMO (N, cleaved yes); made in house; host or cells: E. coli BL21 (DE3)
T1 sequence (O15297 1-420): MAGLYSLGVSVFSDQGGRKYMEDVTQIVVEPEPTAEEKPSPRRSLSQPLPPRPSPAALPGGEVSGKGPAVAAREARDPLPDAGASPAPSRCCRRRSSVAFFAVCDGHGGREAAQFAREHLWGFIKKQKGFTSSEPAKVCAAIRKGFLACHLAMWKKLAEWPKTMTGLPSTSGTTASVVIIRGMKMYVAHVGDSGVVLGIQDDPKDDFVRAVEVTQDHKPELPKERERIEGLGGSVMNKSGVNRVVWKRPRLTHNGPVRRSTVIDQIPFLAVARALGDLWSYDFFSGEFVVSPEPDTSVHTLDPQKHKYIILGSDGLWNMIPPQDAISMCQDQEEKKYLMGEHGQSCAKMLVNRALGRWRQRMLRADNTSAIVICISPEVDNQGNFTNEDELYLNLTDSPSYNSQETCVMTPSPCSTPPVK
Description: (§1) To generate the double phosphorylated form of p38 MAPK for the LC/MS enzymatic PPM1D assay, 20 µM p38 MAPK was incubated with 100 nM MKK6 in 50 mM HEPES pH 7.4, 10 mM ATP, 40 mM MgCl2, and 100 µM TCEP at RT for 2 h. The reaction mixture was diluted 2-fold with 20 mM HEPES pH 7.4, 300 mM NaCl, 100 µM TCEP, and 1 mM MgCl2 and passed over a Superdex 200 26/600 column equilibrated with 20 mM HEPES pH 7.4, 150 mM NaCl, 100 µM TCEP, and 1 mM MgCl2 to remove excess ATP and MKK6 from the phosphorylated p38 MAPK (p38PP) protein. The protein was concentrated and stored in aliquots for single time usage at −80 °C.
(§2) The enzymatic activity of the PPM1D constructs was measured by quantifying the dephosphorylation of the substrate protein p38PP by LC/MS. Assays were run in 384-well plates (Axygen; #P-384-120SQ-C) in a final volume of 80 µL per well. The buffer consisted of 20 mM HEPES, 20 mM NaCl, 20 mM MgCl2 and 0.1 mM TCEP, at a pH of 7.5. The reaction was initiated by addition of the p38PP substrate to a solution containing 10 nM PPM1D to a final concentration of 300 nM for p38PP. The plate was then incubated at room temperature and the reaction quenched after 15 min increments with formic acid to a final concentration of 6% (v/v) up to 120 min. For IC50 measurements, the GSK2830371 compound was pre-incubated with the PPM1D constructs in a 2% DMSO-containing buffer for 10 min prior to the addition of the substrate and the reactions were quenched after 2 h. In both experiments, BSA was added to a final concentration of 0.2 µM during the quench step as a carrier protein and injection control for the LC/MS. The plate was then sealed and spun down at 1500 × g for 1 min prior to LC/MS analysis. Plates were analyzed within the same day of the quench step.
(§3) Substrate and product detection was achieved by multiple-reaction monitoring (MRM) using a Waters Acquity UPLC chromatography system connected to an Xevo TQ-XS mass spectrometer (Waters, Milford, MA). Source parameters were set as follows: polarity ES+, capillary 2.0 kV, cone voltage, 50 V; collision energy, 5 V; cone gas flow, 200 L/h; collision gas flow, 0.16 mL/min; source temperature, 150 °C; desolvation temperature, 500 °C; and desolvation gas flow, 800 L/h. Analytes were separated using an Agilent PLRP-S Reversed-Phase column (5 µm; 2.1 × 50 mm, 300 Å Agilent Technologies, Santa Clara, CA) at 60 °C. Sample storage temperature was set to 15 °C. Mobile phases consisted of 0.1% (v/v) formic acid (Millipore EMSURE) in LC/MS grade water (JTBaker) and 0.1% v/v formic acid in acetonitrile (Honeywell). Initial column conditions were set to […]. Proteins were eluted using a 1.5 min gradient of 5–98% acetonitrile at 0.4 ml/min. MassLynx and TargetLynx software (Waters, version 4.2) were used for sample acquisition and data analysis, respectively. Analytes were quantified by integration of peak areas under the curve using the transitions 941.10 to 941.05 m/z for P38PP (substrate) and 939.10 to 939.09 m/z for P38P (product). Areas were normalized for instrumental variation by dividing by the BSA peak area (1209.23 to 1209.2 m/z transition) measured in the same well.

[2] = biological target: T2, PPM1DΔhinge (Homo sapiens, UniProt O15297, DEL155-163/G166S/M164G/T165G); assay: as above; type: biochemical; details: for P38 Assay, signal relative to 0 nM GSK (=100): PPM1DΔHinge, individual runs, listed as GSK
T2 construct: PPM1D1–154-GGS-167–420 (PPM1D∆hinge); His(6)-SUMO (N, cleaved yes); made in house; host or cells: E. coli BL21 (DE3)
T2 sequence (O15297 with tags, fused parts or gaps DEL155-163/M164G/T165G/G166S): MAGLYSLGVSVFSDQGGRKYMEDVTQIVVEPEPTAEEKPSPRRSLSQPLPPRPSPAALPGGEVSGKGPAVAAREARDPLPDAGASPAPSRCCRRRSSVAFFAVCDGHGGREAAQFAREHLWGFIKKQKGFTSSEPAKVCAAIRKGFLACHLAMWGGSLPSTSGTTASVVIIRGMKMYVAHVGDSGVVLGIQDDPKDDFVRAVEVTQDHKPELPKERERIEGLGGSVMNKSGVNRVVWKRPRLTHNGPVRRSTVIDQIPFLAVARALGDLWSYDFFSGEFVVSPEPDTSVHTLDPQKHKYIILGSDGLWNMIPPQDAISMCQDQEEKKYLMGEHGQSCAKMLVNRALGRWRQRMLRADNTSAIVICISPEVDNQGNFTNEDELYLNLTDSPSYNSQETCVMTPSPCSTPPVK
Description: as §1, §2, §3

Question: With `Cc1ncc(Cl)cc1NCc1ccc(C(=O)N[C@@H](CC2CCCC2)C(=O)NC2CC2)s1` [GSK2830371] as the compound, how does the IC50 ([1]; PPM1D1–420, full length p38 MAPK substrate, LC/MS) read?
Answer: ~6 nM

Question: What about the “P38 Assay, signal relative to 0 nM GSK (=100)” value ([1]; [GSK] 0.49 nM) of the same compound?
Answer: 93.1001 and 100 and 88.922

Question: And the “P38 Assay, signal relative to 0 nM GSK (=100)” value ([1]; [GSK] 0.98 nM)?
Answer: 86.1215 and 81.7339 and 63.3381

Question: What about the “P38 Assay, signal relative to 0 nM GSK (=100)” value ([1]; [GSK] 1.95 nM) of the same compound?
Answer: 86.7639 and 71.6152 and 63.7723

Question: And the “P38 Assay, signal relative to 0 nM GSK (=100)” value ([1]; [GSK] 3.9 nM)?
Answer: 51.5439 and 51.2694 and 46.219

Question: What about the “P38 Assay, signal relative to 0 nM GSK (=100)” value ([1]; [GSK] 7.8 nM) of the same compound?
Answer: 29.2083 and 28.1523 and 24.0173

Question: And the “P38 Assay, signal relative to 0 nM GSK (=100)” value ([1]; [GSK] 15.6 nM)?
Answer: 16.4584 and 13.8278 and 11.5309

Question: And the “P38 Assay, signal relative to 0 nM GSK (=100)” value ([1]; [GSK] 31.2 nM)?
Answer: 11.2856 and 7.234 and 5.456

Question: And the “P38 Assay, signal relative to 0 nM GSK (=100)” value ([1]; [GSK] 62.5 nM)?
Answer: 6.81 and 5.822 and 3.842

Question: What about the “P38 Assay, signal relative to 0 nM GSK (=100)” value ([1]; [GSK] 125 nM) of the same compound?
Answer: 6.3041 and 6.187 and 2.5614

Question: What about the “P38 Assay, signal relative to 0 nM GSK (=100)” value ([1]; [GSK] 250 nM) of the same compound?
Answer: 4.442 and 3.236 and 2.029

Question: And the “P38 Assay, signal relative to 0 nM GSK (=100)” value ([1]; [GSK] 500 nM)?
Answer: 3.225 and 4.879 and 3.8956

Question: What about the “increase of IC50 in p38 MAPK assay upon hinge deletion” value ([2]; PPM1DΔhinge versus PPM1D1–420) of the same compound?
Answer: 100 fold

Question: What about the “P38 Assay, signal relative to 0 nM GSK (=100)” value ([2]; [GSK] 1.953 nM) of the same compound?
Answer: 100.358 and 104.09 and 99.8488

Question: And the “P38 Assay, signal relative to 0 nM GSK (=100)” value ([2]; [GSK] 3.906 nM)?
Answer: 98.4717 and 98.7741 and 94.5709

Question: And the “P38 Assay, signal relative to 0 nM GSK (=100)” value ([2]; [GSK] 7.813 nM)?
Answer: 97.8741 and 98.6995 and 87.7716

Question: And the “P38 Assay, signal relative to 0 nM GSK (=100)” value ([2]; [GSK] 15.625 nM)?
Answer: 91.5216 and 88.9322 and 63.2104

Question: What about the “P38 Assay, signal relative to 0 nM GSK (=100)” value ([2]; [GSK] 31.25 nM) of the same compound?
Answer: 84.0592 and 89.4059 and 56.2735

Question: What about the “P38 Assay, signal relative to 0 nM GSK (=100)” value ([2]; [GSK] 62.5 nM) of the same compound?
Answer: 71.608 and 76.249 and 61.6546

Question: And the “P38 Assay, signal relative to 0 nM GSK (=100)” value ([2]; [GSK] 125 nM)?
Answer: 62.6262 and 54.2715 and 52.5307

Question: And the “P38 Assay, signal relative to 0 nM GSK (=100)” value ([2]; [GSK] 250 nM)?
Answer: 49.6072 and 48.4313 and 45.7898

Question: And the “P38 Assay, signal relative to 0 nM GSK (=100)” value ([2]; [GSK] 500 nM)?
Answer: 38.0355 and 40.9669 and 36.3652

Question: What about the “P38 Assay, signal relative to 0 nM GSK (=100)” value ([2]; [GSK] 1000 nM) of the same compound?
Answer: 32.2867 and 33.3807 and 27.8112
